Results as given in patent publication US20030215462A1, “Use of UGT inhibitors to increase bioavailability” (priority 2001, published 2003).
Values joined by “and” are separate entries in the source; they are usually repeats but may differ in a detail not shown here. Equal values may be shown once.

Legend:
[1] = test system: UGT enzymes of pooled human jejunum microsomes; experiment: Inhibition of estradiol (E2) glucuronidation in pooled human jejunum microsomes; assay type: biochemical; settings: jejunum HJ61; E2 50 μM; inhibitor 50 μM
From the text: (§1) Compounds were eluted using a binary solvent gradient system where solvent A was dilute phosphoric acid (pH 3) and solvent B was 80:20 acetonitrile-methanol. […] Detection was at 280 nm.

[2] = test system: UGT enzymes of pooled human jejunum microsomes; experiment: Inhibition of raloxifene glucuronidation (G1, G2) in pooled human jejunum microsomes; assay type: biochemical; settings: jejunum HJ61; inhibitor 50 μM
Method: Compounds were eluted using a binary solvent gradient system. […] Solvent B was methanol. […] Detection was at 280 nm.
Standardized incubations utilized […] microsomal protein, 1 mM UDPGA and a 30 min incubation time.

[3] = test system: UGT enzymes of human liver microsomes; experiment: Inhibition of estradiol (E2) glucuronidation in human liver microsomes; assay type: biochemical; settings: liver 062101; E2 50 μM; inhibitor 50 μM
From the text: as §1

[4] = test system: T1, UGT enzymes of human liver microsomes; experiment: as above; assay type: biochemical; settings: liver 032101; E2 50 μM; inhibitor 50 μM
T1 construct: residual metabolism (% of control), E2-17-β-D-glucuronide; other: liver 032101; residual metabolism (% of control), E2-17-β-D-glucuronide
From the text: as §1

[5] = test system: T2, UGT enzymes of human liver microsomes; experiment: as above; assay type: biochemical; settings: liver 032101; E2 50 μM; inhibitor 50 μM
T2 construct: residual metabolism (% of control), E2-3-β-D-glucuronide; other: liver 032101; residual metabolism (% of control), E2-3-β-D-glucuronide
From the text: as §1

UGT1A10 = target: T3, UGT1A10 (Homo sapiens, UniProt Q9HAW8); experiment: Inhibition of raloxifene glucuronidation by recombinant UGT1A10 Bacculosomes; settings: human, Bacculosomes with recombinant human UGT1A10, pH 7.5, probe raloxifene 50 μM; for activity at 15 min, 25 µM: inhibitor 25 μM; for activity at 15 min, 50 µM: inhibitor 50 μM
T3 sequence (Q9HAW8 26-530): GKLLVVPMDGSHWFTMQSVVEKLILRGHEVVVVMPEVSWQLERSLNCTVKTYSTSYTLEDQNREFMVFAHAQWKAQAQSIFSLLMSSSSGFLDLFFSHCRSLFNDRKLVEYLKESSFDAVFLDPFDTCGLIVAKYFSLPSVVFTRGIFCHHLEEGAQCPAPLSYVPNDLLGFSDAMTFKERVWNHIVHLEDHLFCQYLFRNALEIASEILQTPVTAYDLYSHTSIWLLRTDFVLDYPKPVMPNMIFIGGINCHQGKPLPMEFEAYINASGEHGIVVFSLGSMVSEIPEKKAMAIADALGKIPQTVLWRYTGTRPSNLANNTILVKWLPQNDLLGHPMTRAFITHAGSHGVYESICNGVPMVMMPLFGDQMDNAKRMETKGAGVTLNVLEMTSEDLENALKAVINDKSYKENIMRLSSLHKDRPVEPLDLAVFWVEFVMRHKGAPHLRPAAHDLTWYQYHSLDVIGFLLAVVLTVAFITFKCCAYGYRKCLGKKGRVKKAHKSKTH
Method: (§2) Compounds were eluted using a binary solvent gradient system. Solvent A was water brought to pH 8 with NH4OH. Solvent B was methanol. Solvent flow rate was 1 ml/min and the column temperature was maintained at 50° C. Detection was at 280 nm. […] The system was then returned to the initial conditions and equilibrated for 3 min.

UGT1A1 = target: T4, UGT1A1 (Homo sapiens, UniProt P22309); experiment: Inhibition of raloxifene glucuronidation by recombinant UGT1A1 Supersomes; settings: human; for activity at 15 min, 25 µM: inhibitor 25 μM; for activity at 15 min, 50 µM: inhibitor 50 μM
T4 sequence (P22309 26-533): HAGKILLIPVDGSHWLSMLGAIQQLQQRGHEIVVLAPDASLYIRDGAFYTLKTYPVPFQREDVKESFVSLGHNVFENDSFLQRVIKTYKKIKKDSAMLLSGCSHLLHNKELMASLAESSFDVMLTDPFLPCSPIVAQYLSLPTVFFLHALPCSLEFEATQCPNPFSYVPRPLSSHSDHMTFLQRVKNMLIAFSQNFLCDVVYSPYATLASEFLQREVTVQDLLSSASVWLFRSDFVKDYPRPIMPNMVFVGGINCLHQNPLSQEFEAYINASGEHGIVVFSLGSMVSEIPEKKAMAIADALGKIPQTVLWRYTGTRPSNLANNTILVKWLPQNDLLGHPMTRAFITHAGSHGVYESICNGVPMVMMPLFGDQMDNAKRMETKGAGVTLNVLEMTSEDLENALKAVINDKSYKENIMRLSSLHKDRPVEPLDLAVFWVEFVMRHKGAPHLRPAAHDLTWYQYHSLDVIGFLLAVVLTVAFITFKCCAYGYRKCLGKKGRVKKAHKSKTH
Method: as §2

[6] = target: T5, UGT enzymes of human liver microsomes; experiment: Inhibition of 7-HFC glucuronidation in human liver microsomes; assay type: biochemical; settings: for % of control metabolism (SD, n = 3), 7-HFC glucuronidation: human liver microsomes 100 μg/ml
T5 construct: percentage of control metabolism, 7-HFC glucuronidation; percentage of control metabolism, 7-HFC glucuronidation

UGT1A3 = target: T6, UGT1A3 (Homo sapiens, UniProt P35503); experiment: Inhibition of raloxifene glucuronidation by recombinant UGT1A3 Supersomes; settings: human; for activity at 15 min, 25 µM: inhibitor 25 μM; for activity at 15 min, 50 µM: inhibitor 50 μM
T6 sequence (P35503 29-534): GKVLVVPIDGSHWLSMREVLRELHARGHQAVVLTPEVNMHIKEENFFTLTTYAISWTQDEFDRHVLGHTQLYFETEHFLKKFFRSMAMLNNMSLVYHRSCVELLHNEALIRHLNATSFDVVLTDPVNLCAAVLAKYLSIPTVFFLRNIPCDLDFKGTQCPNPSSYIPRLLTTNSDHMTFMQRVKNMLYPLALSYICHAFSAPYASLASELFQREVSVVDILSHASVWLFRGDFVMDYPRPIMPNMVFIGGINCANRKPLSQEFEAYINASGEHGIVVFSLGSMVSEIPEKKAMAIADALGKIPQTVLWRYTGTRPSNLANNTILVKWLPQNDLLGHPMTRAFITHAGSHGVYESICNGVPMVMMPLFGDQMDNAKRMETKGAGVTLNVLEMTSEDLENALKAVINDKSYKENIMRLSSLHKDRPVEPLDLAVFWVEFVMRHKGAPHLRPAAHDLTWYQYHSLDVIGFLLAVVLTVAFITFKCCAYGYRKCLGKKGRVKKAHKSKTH
Method: as §2

[7] = formation of glucuronide G1, % of control metabolism, raloxifene G1, UGT1A10
[8] = formation of glucuronide G2, % of control metabolism, raloxifene G2, UGT1A10
[9] = Supersomes with recombinant human UGT1A1, pH 7.5, probe raloxifene 50 μM, formation of glucuronide G1, % of control metabolism, raloxifene G1, UGT1A1
[10] = Supersomes with recombinant human UGT1A1, pH 7.5, probe raloxifene 50 μM, formation of glucuronide G1, Inhibition of raloxifene glucuronidation, G1, UGT1A1, G1, raloxifene 50 μM, 250 μg/ml Supersomes, 1 mM UDPGA, 15 min
[11] = Supersomes with recombinant human UGT1A1, pH 7.5, probe raloxifene 50 μM, formation of glucuronide G2, % of control metabolism, raloxifene G2, UGT1A1
[12] = recombinant UGT1A1 Supersomes, pH 7.5, probe raloxifene 50 μM (formation of glucuronide G2), Inhibition of raloxifene glucuronidation, G2, UGT1A1, G2, raloxifene 50 μM, 250 μg/ml Supersomes, 1 mM UDPGA, 15 min
[13] = Supersomes with recombinant human UGT1A3, pH 7.5, probe raloxifene 50 μM, formation of glucuronide G1, % of control metabolism, raloxifene G1, UGT1A3
[14] = Supersomes with recombinant human UGT1A3, pH 7.5, probe raloxifene 50 μM, formation of glucuronide G2, % of control metabolism, raloxifene G2, UGT1A3
[15] = recombinant UGT1A3 Supersomes, pH 7.5, probe raloxifene 50 μM (formation of glucuronide G1), Inhibition of raloxifene glucuronidation, G1, UGT1A3, G1, raloxifene 50 μM, 250 μg/ml Supersomes, 1 mM UDPGA, 15 min
[16] = recombinant UGT1A3 Supersomes, pH 7.5, probe raloxifene 50 μM (formation of glucuronide G2), Inhibition of raloxifene glucuronidation, G2, UGT1A3, G2, raloxifene 50 μM, 250 μg/ml Supersomes, 1 mM UDPGA, 15 min

O=C(O[C@@H]1Cc2c(O)cc(O)cc2O[C@H]1c1cc(O)c(O)c(O)c1)c1cc(O)c(O)c(O)c1 [Gallocatechin gallate]
residual metabolism (% of control), E2-3-β-D-glucuronide [1]: 25 (1) %
residual metabolism (% of control), E2-17-β-D-glucuronide [1]: 39 (1) %
% of control metabolism, raloxifene G1 [2]: 10 (0), 10 (0) %
% of control metabolism, raloxifene G2 [2]: 10 (0), 10 (0) %
residual metabolism (% of control), E2-3-β-D-glucuronide [3]: 33 (2) %
residual metabolism (% of control), E2-17-β-D-glucuronide [3]: 55 (2) %
residual metabolism (% of control), E2-17-β-D-glucuronide [4]: 69 (4) %
residual metabolism (% of control), E2-3-β-D-glucuronide [5]: 24 (1) %
activity at 15 min, 25 µM (UGT1A10; [7]): 64%
activity at 15 min, 50 µM (UGT1A10; [7]): 49%
activity at 15 min, 25 µM (UGT1A10; [8]): 68%
activity at 15 min, 50 µM (UGT1A10; [8]): 48%
activity at 15 min (UGT1A1; Supersomes with recombinant human UGT1A1, pH 7.5, probe raloxifene 50 μM, formation of glucuronide G1): 79%
activity at 15 min, 25 µM (UGT1A1; [9]): 52%
activity at 15 min, 50 µM (UGT1A1; [9]): 30%
activity at 15 min, 25 µM (UGT1A1; [10]): 52%
activity at 15 min, 50 µM (UGT1A1; [10]): 30%
activity at 15 min, 25 µM (UGT1A1; [11]): 54%
activity at 15 min, 50 µM (UGT1A1; [11]): 32%
activity at 15 min (UGT1A1; recombinant UGT1A1 Supersomes, pH 7.5, probe raloxifene 50 μM (formation of glucuronide G2)): 76%
activity at 15 min, 25 µM (UGT1A1; [12]): 54%
activity at 15 min, 50 µM (UGT1A1; [12]): 32%
IC50 ([6]; 7-HFC 50 μM, 1 mM UDPGA, 15 min): 100 µM
percentage of control metabolism, 7-HFC glucuronidation ([6]; inhibitor 25 μM): 80 (2) %
% of control metabolism (SD, n = 3), 7-HFC glucuronidation ([6]; inhibitor 25 μM, 7-HFC 50 μM, 15 min): 80 (2) %
percentage of control metabolism, 7-HFC glucuronidation ([6]; inhibitor 50 μM): 68 (2) %
% of control metabolism (SD, n = 3), 7-HFC glucuronidation ([6]; inhibitor 50 μM, 7-HFC 50 μM, 15 min): 68 (2) %
percentage of control metabolism, 7-HFC glucuronidation ([6]; inhibitor 100 μM): 54 (1) % and 46 (2) %
% of control metabolism (SD, n = 3), 7-HFC glucuronidation ([6]; inhibitor 100 μM, 7-HFC 50 μM, 15 min): 54 (1) % and 46 (2) %
percentage of control metabolism, 7-HFC glucuronidation ([6]; inhibitor 200 μM): 25 (0) %
% of control metabolism (SD, n = 3), 7-HFC glucuronidation ([6]; inhibitor 200 μM, 7-HFC 50 μM, 15 min): 25 (0) %
percentage of control metabolism, 7-HFC glucuronidation ([6]; inhibitor 500 μM): 0 (0) %
% of control metabolism (SD, n = 3), 7-HFC glucuronidation ([6]; inhibitor 500 μM, 7-HFC 50 μM, 15 min): 0 (0) %
activity at 15 min, 25 µM (UGT1A3; [13]): 65%
activity at 15 min, 50 µM (UGT1A3; [13]): 39%
activity at 15 min, 25 µM (UGT1A3; [14]): 70%
activity at 15 min, 50 µM (UGT1A3; [14]): 38%
activity at 15 min, 25 µM (UGT1A3; [15]): 64%
activity at 15 min, 50 µM (UGT1A3; [15]): 39%
activity at 15 min, 25 µM (UGT1A3; [16]): 70%
activity at 15 min, 50 µM (UGT1A3; [16]): 38%
